Where two headings read alike, the source gives them in different places. Where a SMILES comes first, the peptide text is derived from it. Bridges are numbered along the chain shown (N, C = ends). [ ]: non-standard residue; d: D form. 2Nal = N[C@@H](Cc1ccc2ccccc2c1)C(=O)O; Cit = NC(=O)NCCC[C@H](N)C(=O)O
How the values were obtained:
[1] = test system: human peripheral blood mononuclear cells (PBMC); assay: Cytotoxicity Test II: human PBMC, trypan blue dyeing method; format: cell-based; conditions: selective index, PBMC CC50 over anti-HIV EC50
[2] = as above; format: cell-based; conditions: human PBMC, trypan blue dyeing method, read-out: CC50 (Test II), 50% survival concentration
[3] = test system: virus-uninfected MT-4 cells; assay: Cytotoxicity Test I: virus-uninfected MT-4 cells, MTT method; format: cell-based; conditions: for SI: CC50 (Test I)/EC50: selective index, MT-4 CC50 over anti-HIV EC50; for cytotoxicity in words, compared with conventional T134/T140: conclusion drawn from Table 3
Method: (§1) HIV-1 (IIIB) strain obtained from MOLT/HIV-1 (IIIB) cell previously infected by HIV-1 was used. The polypeptide of the present invention was added to MT-4 CD4^+ T cells infected by HIV in various kinds of concentrations, and a number of living cells after culturing at 37° C. for 5 days was determined by using a 3′-(4,5-dimethylthiazol-2-yl)-2,5-diphenyltetrazolinium bromide (MTT) method. Anti-HIV activity is shown by a concentration (EC50 value), where MT-4 cell death by HIV infection is inhibited by 50%. Cytotoxicity of the peptide according to the present invention was shown by a 50% survival concentration (Test I: CC50 value) by culturing virus-uninfected MT-4 cells with the polypeptide according to the present invention in various concentrations, and determining a number of living cells by the MTT method. Moreover, a number of living cells of human peripheral blood mononuclear cells (monocyte) (PBMC) was determined by trypan blue dyeing method, and shown by a 50% survival concentration (Test II: CC50 value). Respective ratios of the CC50 value and the EC50 value were shown as a selective index (SI). Obtained values were summarized in Table 3 using the conventionally known polypeptides T134 and T140, and an anti-HIV compound: 3′-azido-2′,3′-dideoxythymidine (AZT) used as a medicine as a control anti-HIV agent.

[4] = as above; format: cell-based; conditions: human, virus-uninfected MT-4 cells, MTT method, read-out: CC50 (Test I), 50% survival concentration
Method: as §1

HIV-1 (IIIB) strain = assay: Anti-HIV activity: inhibition of MT-4 cell death by HIV infection (MTT method); format: cell-based; conditions: for EC50: MT-4 CD4+ T cells infected by HIV-1 (IIIB), 37° C., 5 days, MTT, average of at least three measurements, read-out: EC50 (concentration where MT-4 cell death by HIV infection is inhibited by 50%)
Method: as §1

in vitro = in vitro ADME, cat; conditions: serum
Method: T140 or TC14012 was dissolved in cat serum (100 μL/100 μL Water) in an amount of 100 nmol, and maintained at 37° C. Each 8 μL of the respective samples were collected after 0 hour, 1 hour, 2 hours, 5 hours and 16 hours, and analyzed by reverse phase HPLC using 16% acetonitrile.

NCCCC[C@@H]1NC(=O)[C@H](CCCN=C(N)N)NC(=O)[C@H](Cc2ccc(O)cc2)NC(=O)[C@@H](NC(=O)[C@H](Cc2c[nH]c3ccccc23)NC(=O)[C@H](CCCN=C(N)N)NC(=O)[C@@H](N)CCCN=C(N)N)CSSC[C@@H](C(=O)N[C@@H](CCCN=C(N)N)C(=O)O)NC(=O)[C@H](CCCNC(N)=O)NC(=O)[C@H](CCCN=C(N)N)NC(=O)[C@H](Cc2ccc(O)cc2)NC(=O)[C@@H]2CCCN2C(=O)[C@@H](CCCCN)NC1=O [Compound T134, H-Arg-Arg-Trp-Cys-Tyr-Arg-Lys-DLys-Pro-Tyr-Arg-Cit-Cys-Arg-OH, reference compound] (H-RRWCYRK[dK]PYR[Cit]CR-OH; disulfide 4-13)
SI: CC50 (Test II)/EC50 [1]: 23000
CC50 [2]: 190 µM
SI: CC50 (Test I)/EC50 [3]: >>120
CC50 ([4]; MT-4 cells (virus-uninfected)): > 1 µM

NCCCC[C@@H]1NC(=O)[C@H](CCCN=C(N)N)NC(=O)[C@H](Cc2ccc(O)cc2)NC(=O)[C@@H](NC(=O)[C@H](Cc2ccc3ccccc3c2)NC(=O)[C@H](CCCN=C(N)N)NC(=O)[C@@H](N)CCCN=C(N)N)CSSC[C@@H](C(=O)N[C@@H](CCCN=C(N)N)C(=O)O)NC(=O)[C@H](CCCNC(N)=O)NC(=O)[C@H](CCCN=C(N)N)NC(=O)[C@H](Cc2ccc(O)cc2)NC(=O)[C@@H]2CCCN2C(=O)[C@@H](CCCNC(N)=O)NC1=O [TC14005, H-Arg-Arg-NaI-Cys-Tyr-Arg-Lys-DCit-Pro-Tyr-Arg-Cit-Cys-Arg-OH]
SI: CC50 (Test II)/EC50 [1]: 69000
CC50 [2]: 280 µM
cytotoxicity in words, compared with conventional T134/T140 [3]: cytotoxicity is markedly lowered
SI: CC50 (Test I)/EC50 [3]: >20000
CC50 ([4]; MT-4 cells (virus-uninfected)): > 80 µM
EC50 (HIV-1 (IIIB) strain): 0.004 µM
anti-HIV activity in words, compared with T140 (HIV-1 (IIIB) strain; conclusion drawn from Table 3): substantially the same anti-HIV activity as that of the conventionally known T140

NCCCC[C@@H]1NC(=O)[C@H](CCCN=C(N)N)NC(=O)[C@H](Cc2ccc(O)cc2)NC(=O)[C@@H](NC(=O)[C@H](Cc2ccc3ccccc3c2)NC(=O)[C@H](CCCN=C(N)N)NC(=O)[C@@H](N)CCCN=C(N)N)CSSC[C@@H](C(=O)N[C@@H](CCCN=C(N)N)C(=O)O)NC(=O)[C@H](CCCNC(N)=O)NC(=O)[C@H](CCCN=C(N)N)NC(=O)[C@H](Cc2ccc(O)cc2)NC(=O)[C@@H]2CCCN2C(=O)[C@@H](CCCCN)NC1=O [Compound T140, H-Arg-Arg-Nal-Cys-Tyr-Arg-Lys-DLys-Pro-Tyr-Arg-Cit-Cys-Arg-OH, reference compound] (H-RR[2Nal]CYRK[dK]PYR[Cit]CR-OH; disulfide 4-13)
metabolised at 16 h, 0.5 mM (in vitro): ~70%
SI: CC50 (Test II)/EC50 [1]: 29000
CC50 [2]: 96 µM
SI: CC50 (Test I)/EC50 [3]: >>300
CC50 ([4]; MT-4 cells (virus-uninfected)): > 1 µM

NCCCC[C@H]1NC(=O)[C@H](CCCNC(N)=O)NC(=O)[C@H](CCCN=C(N)N)NC(=O)[C@H](Cc2ccc(O)cc2)NC(=O)[C@@H](NC(=O)[C@H](Cc2ccc3ccccc3c2)NC(=O)[C@H](CCCN=C(N)N)NC(=O)[C@@H](N)CCCN=C(N)N)CSSC[C@@H](C(=O)N[C@@H](CCCN=C(N)N)C(=O)O)NC(=O)[C@H](CCCNC(N)=O)NC(=O)[C@H](CCCN=C(N)N)NC(=O)[C@H](Cc2ccc(O)cc2)NC(=O)[C@@H]2CCCN2C1=O [TC14004, H-Arg-Arg-Nal-Cys-Tyr-Arg-Cit-DLys-Pro-Tyr-Arg-Cit-Cys-Arg-OH] (H-RR[2Nal]CYR[Cit][dK]PYR[Cit]CR-OH; disulfide 4-13)
SI: CC50 (Test II)/EC50 [1]: 16000
CC50 [2]: 270 µM
SI: CC50 (Test I)/EC50 [3]: >5000
CC50 ([4]; MT-4 cells (virus-uninfected)): > 80 µM

NCCCC[C@@H]1NC(=O)[C@H](CCCNC(N)=O)NC(=O)[C@H](Cc2ccc(O)cc2)NC(=O)[C@@H](NC(=O)[C@H](Cc2ccc3ccccc3c2)NC(=O)[C@H](CCCN=C(N)N)NC(=O)[C@@H](N)CCCN=C(N)N)CSSC[C@@H](C(=O)N[C@@H](CCCN=C(N)N)C(=O)O)NC(=O)[C@H](CCCNC(N)=O)NC(=O)[C@H](CCCN=C(N)N)NC(=O)[C@H](Cc2ccc(O)cc2)NC(=O)[C@@H]2CCCN2C(=O)[C@@H](CCCCN)NC1=O [TC14003, H-Arg-Arg-Nal-Cys-Tyr-Cit-Lys-DLys-Pro-Tyr-Arg-Cit-Cys-Arg-OH] (H-RR[2Nal]CY[Cit]K[dK]PYR[Cit]CR-OH; disulfide 4-13)
SI: CC50 (Test II)/EC50 [1]: 160000
CC50 [2]: 310 µM
cytotoxicity in words, compared with conventional T134/T140 [3]: cytotoxicity is markedly lowered
SI: CC50 (Test I)/EC50 [3]: >29000
CC50 ([4]; MT-4 cells (virus-uninfected)): > 80 µM

Cc1cn([C@H]2C[C@H](N=[N+]=[N-])[C@@H](CO)O2)c(=O)[nH]c1=O [AZT, 3′-azido-2′,3′-dideoxythymidine, reference compound]
SI: CC50 (Test II)/EC50 [1]: <410
CC50 ([2]; peripheral blood mononuclear cells (PBMC)): < 20 µM
SI: CC50 (Test I)/EC50 [3]: 4000
CC50 [4]: 190 µM
EC50 (HIV-1 (IIIB) strain; Human immunodeficiency virus 1, MT4, 120 h): 0.048 µM

NCCCC[C@@H]1NC(=O)[C@H](CCCN=C(N)N)NC(=O)[C@H](Cc2ccc(O)cc2)NC(=O)[C@@H](NC(=O)[C@H](Cc2ccc3ccccc3c2)NC(=O)[C@H](CCCN=C(N)N)NC(=O)[C@@H](N)CCCN=C(N)N)CSSC[C@@H](C(=O)N[C@@H](CCCN=C(N)N)C(=O)O)NC(=O)[C@H](CCCNC(N)=O)NC(=O)[C@H](CCCNC(N)=O)NC(=O)[C@H](Cc2ccc(O)cc2)NC(=O)[C@@H]2CCCN2C(=O)[C@@H](CCCCN)NC1=O [TC14006, H-Arg-Arg-Nal-Cys-Tyr-Arg-Lys-DLys-Pro-Tyr-Cit-Cit-Cys-Arg-OH] (H-RR[2Nal]CYRK[dK]PY[Cit][Cit]CR-OH; disulfide 4-13)
SI: CC50 (Test II)/EC50 [1]: 20000
CC50 [2]: 310 µM
SI: CC50 (Test I)/EC50 [3]: >5300
CC50 ([4]; MT-4 cells (virus-uninfected)): > 80 µM

Reference: US8435939B2, “Polypeptide anti-HIV agent containing the same” (priority 2000, dated 2013)
